Assay results: patent US20230381170A1, “METHOD FOR TREATING ALS/FTD THROUGH DEGRADATION OF RNA REPEAT EXPANSION” (University of Florida Research Foundation, Incorporated, priority 2020, published 2023)
Like-named read-outs stand apart in the source and are kept apart here.

What was measured:
r(G4C2)8 [1] = experiment: Biolayer interferometry (BLI) binding; details: for Kd: BLI
Description: (§1) Biolayer Interferometry (BLI). BLI studies were performed similarly as previously described (12) using an Octet RED96. Briefly, 5′-biotinylated nucleic acids were folded by heating at 95° C. for 4 min in 10 mM sodium phosphate buffer, pH 7, followed by slowly cooling to room temperature. Then, to the folded RNA were added the following components: 1.386 mL 1×DPBS (21-031-CV, Corning), 180 μL freshly prepared 1% (w/v) BSA, 36 μL 1% (v/v) Tween-20, and 18 μL DMSO (1% final concentration) in a final volume of 1.8 mL. The final concentration of RNA was 0.5 μM. Separately, serial dilutions of the compound of interest were prepared in the same buffer.
(§2) The resulting curves were analyzed and processed using Octet Data Analysis software version 9.1 by subtracting the response of the sensors recorded upon incubation with solutions containing compound and no RNA (parallel reference). The data were then fitted assuming reversible binding using the entire time interval for association and dissociation using either 1:1 or the 2:1 heterogeneous binding curve fitting model. The reported Kd,n, kon,n and koff,n values represent the average of two independent experiments.

r(G2C2)10 = experiment: Biolayer interferometry (BLI) binding; details: BLI; read-out: Kd, 1
Description: as §1
as §2, with “Streptavidin sensors (SA, #18-5019, ForteBio) were equilibrated with buffer for 10 min at room temperature using 96-well black microplate (Greiner; Catalog #: 655209). The following time intervals were used during data acquisition (30° C. with shaking at 1000 rpm): baseline step, 180 s; loading of RNA, 900 s; washing, 180 s; association of compound, 1800 s; and dissociation of compound, 1800 s. The resulting” for “The resulting”

d(G4C2)8 = experiment: Biolayer interferometry (BLI) binding; details: BLI
Description: as §1
as §2, with “Streptavidin sensors (SA, #18-5019, ForteBio) were equilibrated with buffer for 10 min at room temperature using 96-well black microplate (Greiner; Catalog #: 655209). The following time intervals were used during data acquisition (30° C. with shaking at 1000 rpm): baseline step, 180 s; loading of RNA, 900 s; washing, 180 s; association of compound, 1800 s; and dissociation of compound, 1800 s. The resulting” for “The resulting”

r(G2C4)8 = experiment: Biolayer interferometry (BLI) binding; details: BLI
Description: as §1
as §2, with “Streptavidin sensors (SA, #18-5019, ForteBio) were equilibrated with buffer for 10 min at room temperature using 96-well black microplate (Greiner; Catalog #: 655209). The following time intervals were used during data acquisition (30° C. with shaking at 1000 rpm): baseline step, 180 s; loading of RNA, 900 s; washing, 180 s; association of compound, 1800 s; and dissociation of compound, 1800 s. The resulting” for “The resulting”

[2] = tested on: r(G4C2)8 and hnRNP H1 complex; experiment: TR-FRET hnRNP H binding assay; format: biochemical; details: for IC50: inhibiting r(G4C2)8 and hnRNP H1 complex formation, 7 in the absence of Rnase L
Description: TR-FRET hnRNP H Binding Assay. TR-FRET assays were performed as previously described (12). The mixture was incubated for 15 min at room temperature and then hnRNP H1-His6 was added. After an additional 15 min incubation, streptavidin-XL665 (HTRF, Cisbio Bioassays) and anti-His6-Tb (HTRF, Cisbio Bioassays) were added to a final concentration of 40 nM and 0.44 ng/μL, respectively. After incubating for 1 h, TR-FRET was measured as previously described (12).

r(G4C2)8 [3] = experiment: In vitro Chem-CLIP and C-Chem-CLIP; format: binding
Description: In vitro Chemical Cross-linking and Isolation by Pull-Down (Chem-CLIP) and Competitive Chemical Cross-linking and Isolation by Pull-Down (C-Chem-CLIP): Approximately 10,000 counts of ^32P 5′-end labeled r(G4C2)8 was folded in 1×Folding Buffer at 95° C. for 1 min. After cooling to room temperature, the Chem-CLIP probe at the desired concentrations (5, 10, 100, 500, 1000, 5000, 10000 nM) was added, and the samples were incubated at 37° C. for 18 h. For C-Chem-CLIP studies, the parent compound (10, 100, 500, 1000, 5000, 10000 nM) was incubated with RNA for 1 h before addition of the Chem-CLIP probe (500 nM).
Cross-linked RNAs were clicked to biotin […] azide (10 μL of a 5 mM stock solution in DMSO) by incubating in a solution containing 25 mM HEPES (pH 7.1), 250 mM sodium ascorbate, 10 mM CuSO4, and 50 mM THPTA (tris-hydroxypropyltriazolylmethylamine) for 6 h at 37° C. A 300 μL of streptavidin-agarose beads (Sigma-Aldrich) was washed three times and then resuspended in 1×PBS. An aliquot (20 μL) of the slurry was added to each sample, which was incubated for 1 h at room temperature. The samples were centrifuged and the supernatant containing unbound RNA was transferred to an unused tube. The beads were then washed three times with 1×PBS supplemented with 0.10% (v/v) Tween-20 and centrifuged, with each wash supernatant being added to the tube containing unbound RNA. The amounts of radioactivity in the supernatant and associated with the beads were quantified with a Beckman Coulter LS6500 Liquid Scintillation Counter.

[4] = tested on: quadruplex form of r(G4C2) repeats, r(G2C2)10, d(G4C2)8, d(G2C2)10; experiment: In vitro Chem-CLIP, other nucleic acids; format: binding
C9orf72 mRNA variants [5] = experiment: Cellular Chem-CLIP in patient-derived LCLs; format: cell-based, human; details: lymphoblastoid cells
Description: (§3) Cellular Chem-CLIP. For cellular Chem-CLIP studies, LCLs were grown in T-25 flasks while iPSCs were grown in 100 mm dishes. The cells were treated with Chem-CLIP probe (500 nM) overnight at 37° C. After removing the medium and washing with 1×PBS, fresh, ice-cold 1×PBS was added, and crosslinking was performed by UV irradiation at 365 nm for 10 min. The cells were collected, and total RNA was extracted with Qiagen micro RNEasy Kit per the manufacturer's protocol. Dynabeads MyOne Streptavidin C1 beads (Thermo Fisher Scientific 65001) were pre-loaded with biotin disulfide azide (Bioconjugate Technologies LLC dba Click Chemistry Tools) by incubating (10 μL of a 5 mM stock solution in DMSO in 500 μL PBS) with beads at room temperature for 30 min before magnetic capture. The beads were washed with High Salt Wash Buffer: (10 mM Tris-HCl pH 7.0, 1 mM EDTA, 4 M NaCl, 0.2% Tween-20) followed by two washes with Nanopure water. The click reaction between cross-linked RNAs and the Dynabeads displaying biotin disulfide azide was completed in a solution containing 25 mM HEPES, pH 7.1, 250 mM sodium ascorbate, 10 mM CuSO4, and 50 mM THPTA for 6 h at 37° C. […] The levels of C9orf72 mRNA in the purified, pull-down fraction were then measured by RT-qPCR as described above.

C9orf72 mRNA variants [6] = experiment: Cellular Chem-CLIP in patient-derived iPSCs; format: cell-based, human
Description: as §3

[7] = tested on: C9orf72 intron 1 harboring r(G4C2)exp; experiment: C9orf72 intron 1 RT-qPCR in patient-derived LCLs; format: cell-based, human; details: increasing concentrations
Description: Measuring Levels of C9orf72 and C9orf72 Variants by RT-qPCR. LCLs were seeded in 6-well plate (˜10^6 cells in 2 mL of growth medium) and incubated overnight at 37° C. Cells were then treated with various concentrations of compound for 24 h or with G4C2-ASO and Control-ASO (100 nM), delivered by transfection with Lipofectamine RNAiMax. RNA was extracted as described above and the expression of C9orf72 variants was determined by RT-qPCR. […] For compound treatment well, medium change was performed with fresh compound every 3-4 days. RNA was extracted as described above and the expression of C9orf72 variants was determined by RT-qPCR.

C#CCn1c2ccc(OC)cc2c2c(C)c3cnccc3c(C)c21 [Compound 1b]
Kd (r(G4C2)8 [1]; r(G4C2) repeats, read-out: Kd): 11 ± 0.14 µM
avidity weaker than 1 (r(G4C2)8 [1]; Kd relative to 1): ~37 fold

Cc1c2ccncc2c(C)c2c1[nH]c1ccc(OCCOCCOCCOCCOCCOCCOc3ccc4[nH]c5c(C)c6ccncc6c(C)c5c4c3)cc12 [Compound 2]
Kd (r(G2C2)10): 6 µM
Kd (d(G4C2)8; read-out: Kd, 1): 1.3 µM
Kd (d(G4C2)8; read-out: Kd, 2): 38 µM
Kd (r(G2C4)8; read-out: Kd, 1): 32 µM
Kd (r(G2C4)8; read-out: Kd, 2): 120 µM
more potent than 1 ([2]; IC50 relative to 1): 10 fold
IC50 [2]: ~1.8 µM
Kd (r(G4C2)8 [1]; read-out: Kd): 0.05 ± 0.008 µM
Kd (r(G4C2)8 [1]; read-out: Kd, 2): 0.12 µM

C#CCCC1(CCC(=O)N(CCOCCOCCOc2ccc3[nH]c4c(C)c5ccncc5c(C)c4c3c2)CCOCCOCCOc2ccc3[nH]c4c(C)c5ccncc5c(C)c4c3c2)N=N1 [Compound 4]
RNA pulled down (r(G4C2)8 [3]; 500 nM compound): ~40%
pull-down of other nucleic acids more than 5 [4]: did not statistically significantly pull-down
enrichment of variants with r(G4C2)exp (C9orf72 mRNA variants [5]; 500 nM probe): 1.9±0.4 fold
enrichment of variants that do not contain the repeat expansion (C9orf72 mRNA variants [5]): no enrichment
enrichment of variants that do not contain the repeat expansion (C9orf72 mRNA variants [6]): no enrichment
enrichment of variants with r(G4C2)exp (C9orf72 mRNA variants [6]; 500 nM probe): 2.3±0.2 fold

C#CCCC1(CCC(=O)NCCC)N=N1 [Compound 5]
RNA pulled down (r(G4C2)8 [3]; all concentrations tested, up to 10 μM): < 25%

CC(=O)N(CCOCCOCCOc1ccc2[nH]c3c(C)c4ccncc4c(C)c3c2c1)CCOCCOCCOc1ccc2[nH]c3c(C)c4ccncc4c(C)c3c2c1 [Compound 6]
IC50 [2]: 2.3 ± 0.3 µM
Kd (r(G4C2)8 [1]; exponent printed in row below, read-out: Kd, 1): 0.2 µM
Kd (r(G4C2)8 [1]; read-out: Kd, 2): 10.6 µM
C9orf72 intron 1 levels on co-treatment with constant concentration of 7 [7]: dose-dependently restored
